The values that follow come from patent publication US10988474B2, “Compounds acting at multiple prostaglandin receptors giving a general anti-inflammatory response” (ALLERGAN, INC., priority 2011, dated 2021).

What all share (type): cell-based
Experiment [1] deals with T1, human prostanoid IP receptor (Homo sapiens, UniProt P43119).
T1 construct: expressed in transfected cells
In words: FLIPR Ca2+ signaling PG antagonist assay, IP stable cell line. The following applies: HEK-293 EBNA cells, human recombinant IP, no exogenous G-protein; standard agonist Cicaprost. Put shortly:
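HEK-293 EBNA stable lines; EP2 co-expressed with chimeric Gqs, EP1/IP/TP with no exogenous G protein. Fluo-4AM-loaded cells pretreated 4.5 min at 37 °C with compound (0.1–30 μM; TP 0.067–1 μM), then standard agonist (PGE2, cicaprost, U-46619) 10^−11–10^−5 M (TP 10^−12–10^−6 M); peak fluorescence read 3.5 min, nonlinear regression.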

Experiment [2] has as its target T2, human prostanoid DP1 receptor (Homo sapiens, UniProt Q13258).
T2 construct: expressed in transfected cells
T2 sequence (Q13258 1-359): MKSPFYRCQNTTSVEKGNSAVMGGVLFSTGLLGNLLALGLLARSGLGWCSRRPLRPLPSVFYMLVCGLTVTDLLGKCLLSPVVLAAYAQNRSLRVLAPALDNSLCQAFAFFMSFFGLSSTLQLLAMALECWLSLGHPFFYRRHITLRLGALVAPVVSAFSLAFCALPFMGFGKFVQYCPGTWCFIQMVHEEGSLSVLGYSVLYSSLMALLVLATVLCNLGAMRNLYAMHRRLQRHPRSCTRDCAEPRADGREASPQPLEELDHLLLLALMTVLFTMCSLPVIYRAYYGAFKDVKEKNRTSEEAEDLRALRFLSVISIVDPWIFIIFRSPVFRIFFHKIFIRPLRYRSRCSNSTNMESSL
In words: FLIPR Ca2+ signaling PG antagonist assay, DP1 stable cell line. The following applies: HEK-293 EBNA cells, human recombinant DP1 with chimeric Gqs, standard agonist BW 245C; for Kb: read-out: DP (Kb, PG antagonist activity). The gist of the method:
(§1)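 Stable HEK-293 EBNA lines (DP1 with chimeric Gqs, EP3 with Gqi, EP1 and FP without exogenous G protein) were Fluo-4AM-loaded and pretreated 4.5 min at 37 °C with compound (0.1–30 μM). Agonist (BW 245C for DP1, PGE2 for EP1/EP3, 17-phenyl-PGF2α for FP) was then added at 10^−11–10^−5 M. Peak Ca2+ fluorescence was taken relative to agonist at 10^−6 M.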

Experiment [3] addresses T3, human prostanoid EP3 receptor (Homo sapiens, UniProt P43115).
T3 construct: expressed in transfected cells
T3 sequence (P43115 1-390): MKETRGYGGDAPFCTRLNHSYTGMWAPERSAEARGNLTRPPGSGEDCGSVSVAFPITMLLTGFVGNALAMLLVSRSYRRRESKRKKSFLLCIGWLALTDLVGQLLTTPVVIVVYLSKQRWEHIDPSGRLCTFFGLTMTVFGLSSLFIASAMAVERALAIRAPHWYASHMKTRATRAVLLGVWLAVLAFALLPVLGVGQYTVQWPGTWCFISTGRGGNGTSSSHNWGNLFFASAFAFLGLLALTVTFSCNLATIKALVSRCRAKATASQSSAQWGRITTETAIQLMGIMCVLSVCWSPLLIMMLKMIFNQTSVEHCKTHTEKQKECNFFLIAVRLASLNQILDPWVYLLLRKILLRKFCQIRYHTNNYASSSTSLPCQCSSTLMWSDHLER
The experiment is described as follows: FLIPR Ca2+ signaling PG antagonist assay, EP3 stable cell line. The note with it: HEK-293 EBNA cells, human recombinant EP3 with chimeric Gqi; standard agonist PGE2. As to the method: (§2) The above compounds were tested for PG antagonist activity as follows using human recombinant prostanoid receptor (DP1, EP1-4, FP, IP and TP) stable cell lines: In order to measure the response of Gs and Gi coupled prostanoid receptors as a Ca^2+ signal, chimeric G protein cDNAs were used. Stable cell lines over-expressing human prostanoid DP1, EP1-4, FP, IP, and TP receptors were established as follows:
(§3) Briefly, human prostanoid DP1, EP2, and EP4 receptor cDNAs were co-transfected with chimeric Gqs cDNA containing a haemagglutanin (HA) epitope; human prostanoid EP3 receptors were co-transfected with chimeric Gqi-HA; human EP1, FP, IP, and TP receptor cDNAs were expressed with no exogenous G-proteins. Gqs and Gqi chimeric cDNAs (Molecular Devices, Sunnyvale, Calif., U.S.A.), as well as cDNAs of prostanoid receptors, were cloned into a pCEP4 vector with a hygromycin B selection marker. Transfection into HEK-293 EBNA (Epstein-Barr virus nuclear antigen) cells was achieved by the FuGENE 6 transfection Reagent (Roche Applied Science, Indianapolis, Ind., USA). Stable transfectants were selected according to hygromycin resistance. Because Gqs and Gqi contained an HA epitope, G-protein expression was detected by Western blotting analysis using anti-mouse HA monoclonal antibody and horseradish peroxidase (HRP)-conjugated secondary antibody, while functional expression of prostanoid receptors was detected by FLIPR screening (Matias et al., 2004). These stable cell lines were validated using previously published antagonists at 10 μM against serial dilutions of standard agonists by FLIPR functional assays for Ca^2+ Signaling (as described below).
(§4) Ca^2+ signaling studies were performed using a FLIPR TETRA system (Molecular Devices, Sunnyvale, Calif., USA) in the 384-format. This is a high-throughput instrument for cell-based assays to monitor Ca^2+ signaling associated with GPCRs and ion channels. Cells were seeded at a density of 5×10^4 cells/well in BioCoat poly-D-lysine coated, black wall, clear bottom 384-well plates (BD Biosciences, Franklin lakes, NJ, USA) and allowed to attach overnight in an incubator at 37° C. The cells were then washed twice with HBSS-HEPES buffer (Hanks' balanced salt solution without bicarbonate and phenol red, 20 mM HEPES, pH 7.4) using an ELx405 Select CW Microplate Washer (BioTek, Winooski, Vt., USA). After 60 min of dye-loading in the dark using the Ca^2+-sensitive dye Fluo-4AM (Invitrogen, Carlsbad, Calif., USA), at a final concentration of 2×10^−6M, the plates were washed 4 times with HBSS-HEPES buffer to remove excess dye and leaving 50 μl of buffer in each well. The plates were then placed in the FLIPR TETRA instrument and allowed to equilibrate at 37° C. Compounds were added in a 25 μl volume to each well to give final concentrations of 0.1 μM, 0.3 μM, 1 μM, 3 μM, 10 μM, and 30 μM; or 0.067 μM, 0.1 μM, 0.2 μM, 0.3 μM, 0.67 μM, and 1 μM for cells over-expressing TP receptors. After 4.5 minutes, a 7-point serial dilution of the standard agonist for the corresponding receptor, in a 25 μl volume was injected at the final concentrations from 10^−11M to 10^−5M in 10-fold serial dilution increments for cells expressing human recombinant DP1, EP1, EP2, EP3, EP4, FP, and IP receptors. The dose range for the standard agonist for human recombinant TP receptors was from 10^−12M to 10^−6M. HBSS-HEPES buffer was used as the negative control for the standard agonists. Cells were excited with LED (light emitting diode) excitation at 470-495 nm and emission was measured through an emission filter at 515-575 nm. Assay plates were read for 3.5 minutes using the FLIPR^TETRA. The peak increase in fluorescence intensity was recorded for each well. On each plate, negative controls, dose response of positive controls, and co-treatments of antagonist-agonist for each dose were in triplicates. Standard agonists were as follows: DP=BW 245C, EP1-EP4=PGE2, FP=17-phenyl-PGF2α, IP=Cicaprost, and TP=U-46619. […]

The target of experiment [4] is T4, human prostanoid EP4 receptor (Homo sapiens, UniProt P35408).
T4 construct: expressed in transfected cells
T4 sequence (P35408 whole entry): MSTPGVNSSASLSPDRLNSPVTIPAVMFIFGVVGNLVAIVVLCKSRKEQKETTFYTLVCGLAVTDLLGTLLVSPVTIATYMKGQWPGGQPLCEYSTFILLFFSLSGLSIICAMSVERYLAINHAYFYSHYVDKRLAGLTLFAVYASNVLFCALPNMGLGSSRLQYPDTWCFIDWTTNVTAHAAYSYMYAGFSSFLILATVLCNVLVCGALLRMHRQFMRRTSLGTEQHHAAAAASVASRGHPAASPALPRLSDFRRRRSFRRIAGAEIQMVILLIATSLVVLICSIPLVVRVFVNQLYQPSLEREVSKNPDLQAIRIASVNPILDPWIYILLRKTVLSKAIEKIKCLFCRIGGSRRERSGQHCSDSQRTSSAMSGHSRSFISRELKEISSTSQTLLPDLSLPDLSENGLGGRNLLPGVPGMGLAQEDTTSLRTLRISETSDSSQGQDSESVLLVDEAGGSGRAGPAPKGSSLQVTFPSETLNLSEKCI
The experiment is described as follows: FLIPR Ca2+ signaling PG antagonist assay, EP4 stable cell line. The note with it: HEK-293 EBNA cells, human recombinant EP4 with chimeric Gqs; standard agonist PGE2. How it is done:
as §2, §3, §4

Experiment [5] has as its target T5, human prostanoid FP receptor (Homo sapiens, UniProt P43088).
T5 construct: expressed in transfected cells
The experiment is described as follows: FLIPR Ca2+ signaling PG antagonist assay, FP stable cell line. The note with it: HEK-293 EBNA cells, human recombinant FP, no exogenous G-protein; standard agonist 17-phenyl-PGF2α. The gist of the method:
as §1

Bounds are passed on as bounds.

T5 sequence (P43088 whole entry): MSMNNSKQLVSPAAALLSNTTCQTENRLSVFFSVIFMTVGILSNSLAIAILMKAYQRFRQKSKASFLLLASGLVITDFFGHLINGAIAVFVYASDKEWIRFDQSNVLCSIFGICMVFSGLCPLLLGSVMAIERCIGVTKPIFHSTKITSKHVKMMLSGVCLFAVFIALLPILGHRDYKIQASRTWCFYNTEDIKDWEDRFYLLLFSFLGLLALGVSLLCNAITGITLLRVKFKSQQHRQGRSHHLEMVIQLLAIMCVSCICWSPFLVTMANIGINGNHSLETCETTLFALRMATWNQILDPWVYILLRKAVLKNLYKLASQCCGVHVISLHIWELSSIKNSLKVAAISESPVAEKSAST
T1 sequence (P43119 whole entry): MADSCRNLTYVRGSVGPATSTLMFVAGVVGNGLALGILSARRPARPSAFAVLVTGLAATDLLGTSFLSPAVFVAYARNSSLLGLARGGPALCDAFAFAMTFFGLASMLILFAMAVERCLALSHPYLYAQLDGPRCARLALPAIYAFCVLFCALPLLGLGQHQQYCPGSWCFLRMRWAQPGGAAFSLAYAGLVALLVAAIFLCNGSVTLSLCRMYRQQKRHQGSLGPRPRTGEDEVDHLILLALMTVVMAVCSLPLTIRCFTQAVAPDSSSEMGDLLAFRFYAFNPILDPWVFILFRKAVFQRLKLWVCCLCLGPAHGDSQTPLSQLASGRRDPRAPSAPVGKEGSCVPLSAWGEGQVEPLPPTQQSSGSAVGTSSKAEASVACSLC

For the compound `CC(C)COc1ccc(Cl)cc1Cn1ncc2c(C(=O)O)cccc21` [Example 36, 1-(5-Chloro-2-Isobutoxy-Benzyl)-1H-Indazole-4-Carboxylic Acid], the Kb in experiment [1] was 200 nM; in experiment [2], 1100 nM; in experiment [3], 4000 nM; in experiment [4], 1200 nM; in experiment [5], 580 nM.

For `CC(C)COc1ccc(Cl)cc1Cn1cc2c(C(=O)O)cccc2n1` [Example 37, 2-(5-Chloro-2-Isobutoxy-Benzyl)-2H-Indazole-4-Carboxylic Acid], the Kb was not below 10000 nM in experiment [1]; 1300 nM in experiment [2]; 3400 nM in experiment [3]; 700 nM in experiment [4]; not below 10000 nM in experiment [5].

Turning to `CCC(CC)COc1ccc(Cl)cc1Cn1ncc2c(C(=O)O)cccc21` [Example 38, 1-[5-Chloro-2-(2-Ethyl-Butoxy)-Benzyl]-1H-Indazole-4-Carboxylic Acid], the Kb in experiment [1] amounted to 60 nM; in experiment [2], 630 nM; in experiment [3] it was 1700 nM; in experiment [4], 400 nM; in experiment [5], 1100 nM.

For `CCC(CC)COc1ccc(Cl)cc1Cn1cc2c(C(=O)O)cccc2n1` [Example 39, 2-[5-Chloro-2-(2-Ethyl-Butoxy)-Benzyl]-2H-Indazole-4-Carboxylic Acid], the antagonist equilibrium constant (Kb) in experiment [1] is 4900 nM; in experiment [2] it was 1000 nM; in experiment [3], 5500 nM; in experiment [4], 1600 nM; in experiment [5], not below 10000 nM.

For the compound `O=C(O)c1cccc2c1cnn2Cc1cc(Cl)ccc1OCc1ccc(Cl)cc1` [Example 40, 1-[5-Chloro-2-(4-Chloro-Benzyloxy)-Benzyl]-1H-Indazole-4-Carboxylic Acid], the “IP (Kb, PG antagonist activity)” value in experiment [1] is on record as “PAg”. Further, the Kb in experiment [2] was 1000 nM; in experiment [3] it was not below 12000 nM; in experiment [4], 2500 nM; in experiment [5], 270 nM.

For `O=C(O)c1cccc2nn(Cc3cc(Cl)ccc3OCc3ccc(Cl)cc3)cc12` [Example 41, 2-[5-Chloro-2-(4-Chloro-Benzyloxy)-Benzyl]-2H-Indazole-4-Carboxylic Acid], the Kb is 9800 nM in experiment [1]; 4700 nM in experiment [2]; not below 10000 nM in experiment [3]; not below 10000 nM in experiment [4]; not below 10000 nM in experiment [5].

With `CC(C)COc1ccc(Br)cc1Cn1ncc2ccc(C(=O)O)cc21` [Example 42, 1-(5-Bromo-2-Isobutoxy-Benzyl)-1H-Indazole-6-Carboxylic Acid], the Kb in experiment [1] came to 3400 nM; in experiment [2], 160 nM; in experiment [3] it was 1900 nM; in experiment [4], 1800 nM; in experiment [5], 900 nM.

With `O=C(O)c1ccc2cnn(Cc3cc(Br)ccc3OCC3CCCC3)c2c1` [Example 44, 1-(5-Bromo-2-Cyclopentylmethoxy-Benzyl)-1H-Indazole-6-Carboxylic Acid], the “IP (Kb, PG antagonist activity)” value in experiment [1] was “PAg”. Further, the “DP (Kb, PG antagonist activity)” value in experiment [2] is reported as “PAg”. Further, the Kb in experiment [3] worked out at 1600 nM; in experiment [4], 3200 nM; in experiment [5], 1400 nM.

Take `O=C(O)c1ccc2cn(Cc3cc(Br)ccc3OCC3CCCC3)nc2c1` [Example 45, 2-(5-Bromo-2-Cyclopentylmethoxy-Benzyl)-2H-Indazole-6-Carboxylic Acid]: the Kb is 7000 nM in experiment [1]; 2800 nM in experiment [2]; not below 10000 nM in experiment [3]; 2000 nM in experiment [4]; 1400 nM in experiment [5].

Take `CCC(CC)COc1ccc(Cl)cc1Cn1ncc2ccc(C(=O)O)cc21` [Example 46, 1-[5-Chloro-2-(2-Ethyl-Butoxy)-Benzyl]-1H-Indazole-6-Carboxylic Acid]: the Kb in experiment [1] is not below 10000 nM; in experiment [2] it was 2500 nM; in experiment [3], not below 10000 nM; in experiment [4] it was not below 10000 nM; in experiment [5], not below 10000 nM.

`CC(C)COc1c(F)cc(Cl)cc1Cn1ncc2cc(C(=O)O)ccc21` [Example 47, 1-(5-Chloro-3-Fluoro-2-Isobutoxy-Benzyl)-1H-Indazole-5-Carboxylic Acid]: the Kb in experiment [1] was 4800 nM; in experiment [2] it was 700 nM; in experiment [3], not below 10000 nM; in experiment [4], not below 10000 nM; in experiment [5] it was 4700 nM.

Take `CC(C)COc1ccc(S(C)(=O)=O)cc1Cn1ncc2cc(C(=O)O)ccc21` [Example 48, 1-(2-Isobutoxy-5-Methanesulfonyl-Benzyl)-1H-Indazole-5-Carboxylic Acid]: the Kb in experiment [1], in experiment [2], in experiment [3], in experiment [4] and in experiment [5] was not below 10000 nM throughout.

With `CC(C)COc1cc(Cl)c(Cl)cc1Cn1ncc2cc(C(=O)O)ccc21` [Example 49, 1-(4,5-Dichloro-2-Isobutoxy-Benzyl)-1H-Indazole-5-Carboxylic Acid], the Kb was 3200 nM in experiment [1]; 3500 nM in experiment [2]; not below 10000 nM in experiment [3]; 50 nM in experiment [4]; 70 nM in experiment [5].

What is called Kb is the equilibrium dissociation constant of an antagonist, usually derived from a functional assay.
